Counter-ions that a name gives are not always drawn.
Key:
[1] = system: young Lemon Sharks (Negaprion brevirostris); details: in vivo; cited from earlier work
[2] = system: blue sharks and great white sharks; details: squirted into the mouth; cited from earlier work
sharks [3] = details: cited from earlier work
[4] = system: at least four species of sharks; details: cited from earlier work
[5] = room temperature, heat; cited from earlier work
sharks [6] = details: in vivo
[7] = system: tiger sharks and other fish; details: in vivo; cited from earlier work
[8] = system: several species of sharks; details: shark pens at Bimini, Bahamas; cited from earlier work

## CCCCCCCCCCCCOS(=O)(=O)[O-].[Li+] [LLS]
[1]
  repelling captive Lemon Sharks, compared with pardaxin: even more effective than pardaxin

## CCCCCCCCCCCCOS(=O)(=O)[O-].[Na+] [SLS]
[2]
  repellency against blue sharks and great white sharks: effective repellent
Sharks [3]; in vivo
  effectiveness in surrounding-cloud-mode dispersions: not effective
[1]
  repelling captive Lemon Sharks, compared with pardaxin: even more effective than pardaxin

## pardaxin
[4]; freeze-dried form
  effectiveness relative to the fresh secretion: 30%
[4]; laboratory and open sea, at least four species
  time for which sharks were repelled: ≥ 10 h
[5]
  storage stability: not stable for room temperature storage, and was heat-sensitive

## copper acetate
Sharks [6]
  effectiveness as a shark repellent: ineffective
[7]
  efficacy against tiger sharks and other fish: inefficacy
[8]
  repelling or inhibiting feeding activities: fails to repel or inhibit the feeding activities

## CCCCCCCCCCCCOS(=O)(=O)O [dodecyl sulfate]
Sharks [3]; requirement 100 parts per billion (0.1 ppm or 100 micrograms/Liter)
  meeting the Navy's potency requirement for a nondirectional surrounding-cloud type repellent: did not meet
